Legend:
Ramos cells = assay: Cytotoxicity in Ramos cells; type: cell-based; details: Homo sapiens, read-out: Ramos cell EC50
Protocol: (§1) Compounds in Example 4 above were tested for activity against F1F0-ATPase by measuring ATP synthesis. In addition, the compounds were assessed for cytotoxicity in Ramos cells. Inhibition of ATP synthesis by the F1F0-ATPase and cytotoxicity in Ramos cells were measured according to the procedures described in K. M. Johnson et al. Chemistry & Biology 2005, 12, 485-496.

F1F0-ATPase = target: T1, F1F0-ATPase (Bos taurus, UniProt P13621); assay: Inhibition of ATP synthesis by the F1F0-ATPase; type: biochemical
T1 construct: from tissue
Protocol: as §1

SMILES | EC50 (Ramos cells) [µM] | IC50 (F1F0-ATPase) [µM]
CCOC(=O)N[C@H]1CC[C@H](N/C(=N\C(=O)c2ccc(C(F)(F)F)cc2)Nc2cccc(Cl)c2)CC1 [Compound 18] | < 10 | < 10
CCOC(=O)N[C@H]1CC[C@H](N/C(=N\C(=O)c2ccc(F)c(F)c2)NCC(F)(F)F)CC1 [Compound 107] | > 10 | > 10
N[C@H]1CC[C@H](N/C(=N\C(=O)c2ccc(F)c(F)c2)Nc2cccc(Cl)c2)CC1 [Compound 79] | < 10 | > 10
CCOC(=O)N[C@H]1CC[C@H](N/C(=N\C(=O)c2ccc(C(F)(F)F)cc2)NC2CCCC2)CC1 [Compound 110] | > 10 | < 10
CCOC(=O)N[C@H]1CC[C@H](N/C(=N\C(=O)c2ccc(F)c(F)c2)NCc2ccccc2F)CC1 [Compound 53] | < 10 | < 10
O=C(/N=C(/Nc1cccc(Cl)c1)N[C@H]1CC[C@H](O)CC1)c1ccc(F)c(F)c1 [Compound 5] | < 10 | > 10
O=C(/N=C(/Nc1cccc(C(F)(F)F)c1)N[C@H]1CC[C@H](O)CC1)c1ccc(Cl)cc1 [Compound 29] | < 10 | < 10
CCOC(=O)NC1CCC(N/C(=N\C(=O)c2ccc(C)c(F)c2)Nc2cc(F)cc(Cl)c2)CC1 (stereo not shown) [Compound 160] | < 10 | < 10
CCOC(=O)N[C@H]1CC[C@H](N/C(=N/C(=O)c2ccc(F)c(F)c2)Nc2ccc(F)cc2C2CC2)CC1 [Compound 98] | < 10 | < 10
O=C(/N=C(/NC1CCCC1)N[C@H]1CC[C@H](Nc2ncccn2)CC1)c1ccc(Cl)c(F)c1 [Compound 143] | < 10 | < 10
O=C(/N=C(/NCc1ccccc1C(F)(F)F)N[C@H]1CC[C@H](Nc2ncccn2)CC1)c1ccc(F)c(F)c1 [Compound 92] | < 10 | < 10
CCOC(=O)N[C@H]1CC[C@H](N/C(=N\C(=O)c2ccc(F)c(F)c2)NCc2ccc(Cl)cc2)CC1 [Compound 49] | < 10 | < 10
CS(=O)(=O)N[C@H]1CC[C@H](N/C(=N\C(=O)c2ccc(F)c(F)c2)Nc2cccc(C(F)(F)F)c2)CC1 [Compound 3] | < 10 | < 10
CCOC(=O)N[C@H]1CC[C@H](N/C(=N\C(=O)c2ccc(F)c(F)c2)NC2CCCC2)CC1 [Compound 109] | > 10 | > 10
CC(C)(C)OC(=O)NC1CCC(NC(=NC(=O)c2ccc(Cl)cc2)NC2CCC(NC(=O)OC(C)(C)C)CC2)CC1 (stereo not shown) [Compound 162] | > 10 | > 10
O=C(/N=C(/Nc1cc(F)cc(Cl)c1)N[C@H]1CC[C@H](NC(=O)C(F)(F)F)CC1)c1ccc(F)c(F)c1 [Compound 130] | < 10 | < 10
O=C(/N=C(/NCc1ccccc1Cl)N[C@H]1CC[C@H](Nc2ncccn2)CC1)c1ccc(F)c(F)c1 [Compound 90] | < 10 | < 10
O=C(/N=C(/NCc1ccccc1C(F)(F)F)N[C@H]1CC[C@H](O)CC1)c1ccc(C(F)(F)F)cc1 [Compound 17] | < 10 | < 10
CCOC(=O)N[C@H]1CC[C@H](N/C(=N\C(=O)c2ccc(F)c(F)c2)NC2CCC(F)(F)CC2)CC1 [Compound 95] | > 10 | < 10
CC1CCC(N/C(=N/C(=O)c2ccc(F)c(F)c2)N[C@H]2CC[C@H](Nc3ncccn3)CC2)CC1 (stereo partly shown) [Compound 86] | < 10 | < 10
O=C(/N=C(/Nc1cc(F)cc(Cl)c1)N[C@H]1CC[C@H](Nc2ncccn2)CC1)c1ccc(Cl)cc1 [Compound 118] | < 10 | < 10
O=C(/N=C(/Nc1ccccc1C1CC1)N[C@H]1CC[C@H](O)CC1)c1ccc(C(F)(F)F)cc1 [Compound 21] | < 10 | < 10
O=C(/N=C(/Nc1cccc(C(F)(F)F)c1)N[C@H]1CC[C@H](O)CC1)c1cccc(C(F)(F)F)c1 [Compound 30] | < 10 | < 10
CCOC(=O)N[C@H]1CC[C@H](N/C(=N\C(=O)c2ccc(F)c(F)c2)NCc2cc(F)ccc2F)CC1 [Compound 55] | < 10 | < 10
CCOC(=O)NC1CCC(N/C(=N\C(=O)c2ccc(Cl)cc2)Nc2cc(F)cc(Cl)c2)CC1 (stereo not shown) [Compound 165] | < 10 | < 10
O=C(/N=C(/Nc1cccc(C(F)(F)F)c1)N[C@H]1CC[C@H](Nc2ncccn2)CC1)c1ccc(C(F)(F)F)cc1 [Compound 116] | < 10 | < 10

SMILES | EC50 (Ramos cells) [µM] | IC50 (F1F0-ATPase) [µM]
O=C(/N=C(/NCc1cccc(F)c1)N[C@H]1CC[C@H](O)CC1)c1ccc(F)c(F)c1 [Compound 36] | > 10 | > 10
O=C(/N=C(/Nc1cc(F)cc(Cl)c1)NC1CCC(NC(=O)c2cccnc2)CC1)c1ccc(F)c(F)c1 (stereo not shown) [Compound 169] | < 10 | < 10
CCOC(=O)NC1CCC(N/C(=N\C(=O)c2cccc(OC)c2)Nc2cc(F)cc(Cl)c2)CC1 (stereo not shown) [Compound 155] | < 10 | < 10
CCOC(=O)N[C@H]1CCC[C@@H](N/C(=N\C(=O)c2ccc(F)c(F)c2)Nc2cc(F)cc(Cl)c2)C1 [Compound 125] | < 10 | < 10
CC(C)(C)OC(=O)NC1CCC(N/C(=N\C(=O)c2ccc(F)c(F)c2)Nc2cc(F)cc(Cl)c2)CC1 (stereo not shown) [Compound 167] | < 10 | < 10
O=C1CCC(N/C(=N\C(=O)c2ccc(C(F)(F)F)cc2)Nc2cc(F)cc(Cl)c2)CC1 [Compound 172] | < 10 | < 10
COC(=O)NC1CCC(N/C(=N\C(=O)c2cccc(OC)c2)Nc2cc(F)cc(Cl)c2)CC1 (stereo not shown) [Compound 156] | < 10 | < 10
CC(C)(C)N/C(=N/C(=O)c1ccc(F)c(F)c1)N[C@H]1CC[C@H](O)CC1 [Compound 108] | > 10 | > 10
O=C(/N=C(/NC1CCCCC1)N[C@H]1CC[C@H](Nc2ncccn2)CC1)c1ccc(F)c(F)c1 [Compound 87] | < 10 | < 10
O=C(/N=C(\Nc1cccc(C(F)(F)F)c1)N[C@H]1CC[C@H](O)CC1)c1ccc(C(F)(F)F)cc1 [Compound 2] | < 10 | < 10
O=C(/N=C(/Nc1cc(F)cc(Cl)c1)N[C@H]1CCCC[C@H]1O)c1ccc(C(F)(F)F)cc1 [Compound 123] | < 10 | < 10
O=C(/N=C(/NCc1ccc(F)cc1Cl)N[C@H]1CC[C@H](Nc2ncccn2)CC1)c1ccc(F)c(F)c1 [Compound 73] | < 10 | < 10
CCOC(=O)N[C@H]1CC[C@@H](N/C(=N\C(=O)c2ccc(F)c(F)c2)Nc2cc(F)cc(Cl)c2)CC1 [Compound 85] | < 10 | < 10
CCOC(=O)N[C@H]1CC[C@H](N/C(=N\C(=O)c2ccc(F)c(F)c2)NCc2cccc(F)c2)CC1 [Compound 54] | < 10 | < 10
O=C(/N=C(/NCc1ccc(F)c(F)c1)N[C@H]1CC[C@H](O)CC1)c1ccc(F)c(F)c1 [Compound 39] | < 10 | > 10
O=C(/N=C(/Nc1cccc(Cl)c1)N[C@H]1CC[C@H](NC(=O)c2cnccn2)CC1)c1ccc(F)c(F)c1 [Compound 131] | < 10 | < 10
O=C(/N=C(/NCc1ccc(Cl)cc1)N[C@H]1CC[C@H](O)CC1)c1ccc(F)c(F)c1 [Compound 31] | > 10 | > 10
CCOC(=O)NC1CCC(N/C(=N\C(=O)c2ccccc2)Nc2cc(F)cc(Cl)c2)CC1 (stereo not shown) [Compound 149] | < 10 | < 10
O=C(/N=C(/Nc1cccc(Cl)c1)N[C@H]1CC[C@H](NC(=O)c2cccs2)CC1)c1ccc(F)c(F)c1 [Compound 133] | < 10 | < 10
COC(=O)NC1CCC(N/C(=N\C(=O)c2ccc(OC)cc2)Nc2cc(F)cc(Cl)c2)CC1 (stereo not shown) [Compound 153] | < 10 | < 10
O=C(/N=C(/Nc1cc(F)cc(Cl)c1)N[C@H]1CCCC[C@@H]1O)c1ccc(C(F)(F)F)cc1 [Compound 127] | < 10 | –
O=C(/N=C(/NCc1ccccc1C(F)(F)F)N[C@H]1CC[C@H](O)CC1)c1ccc(F)c(F)c1 [Compound 32] | > 10 | –
O=C(/N=C(/Nc1cc(F)cc(Cl)c1)NC1CCC(O)CC1)c1cccc(Cl)c1 (stereo not shown) [Compound 26] | < 10 | –
O=C(/N=C(/Nc1cc(F)cc(Cl)c1)N[C@H]1CC[C@H](O)CC1)c1cccc(Cl)c1 [Compound 26] | – | < 10
CCOC(=O)N[C@H]1CC[C@H](N/C(=N/C(=O)c2ccc(F)c(F)c2)NC2CCCC2)CC1 [Compound 70] | > 10 | –

From US9169199B2, “Cycloalkyl guanidine F1F0-ATPase inhibitors and therapeutic uses thereof” (Lycera Corporation, priority 2010, dated 2015)
